Source: patent US7229825B2, “Double-transfected cell line useful for the identification of transport inhibitors” (Deutches Krebsforschungszentrum Stiftung des Offentlichen …, priority 2001, dated 2007)

Assays:
human MRP2 = human MRP2 (Homo sapiens, UniProt Q92887); experiment: ATP-dependent transport of [3H]BSP into inside-out membrane vesicles from HEK-MRP2 cells; format: biochemical
Protocol: Vesicle Transport Studies. Transport of [^3H]BSP into membrane vesicles was measured by the rapid filtration method (Keppler et al. 1998). Briefly, membrane vesicles (30 μg protein) were incubated in the presence of 4 mM ATP, 10 mM creatine phosphate, 100 μg/ml creatine kinase, and [^3H]BSP in an incubation buffer (250 mM sucrose, 10 mM Tris/HCl, pH 7.4) in a final volume of 55 μl at 37° C. Aliquots (15 μl) were taken at the indicated time points, diluted in 1 ml ice-cold incubation buffer, and immediately filtered through presoaked nitrocellulose membrane (0.2 μm pore size, Schleicher & Schüll, Dassel, Germany). Filters were rinsed twice with 5 ml of incubation buffer, dissolved in liquid scintillation fluid, and counted for radioactivity. In control experiments, ATP was replaced by an equal concentration of 5′-AMP. ATP-dependent transport was calculated by subtracting values obtained in the presence of 5′-AMP from those obtained in the presence of ATP.

[1] = system: OATP2 and MRP2 (MDCK-OATP2/MRP2 cells); experiment: Transcellular transport of BSP by MDCK-OATP2/MRP2 cells; format: cell-based, human; details: 1 μM [3H]BSP basolateral, 30 min, 37° C.; MDCK-OATP2/MRP2 vs MDCK-Co and MDCK-OATP2
Source text: FIG. 13: Transcellular transport of BSP by MDCK-OATP2/MRP2 cells.
Proteins were separated by SDS-PAGE (7.5% gels).

MDCK-MRP2/OATP8 cells = experiment: Radio-HPLC analysis of [3H]BSP after transport by MDCK-MRP2/OATP8 cells; format: in vitro ADME; details: 1 μM [3H]BSP basolateral, 30 min, acivicin 5 mM
Protocol: HPLC Analysis of [^3H]BSP. MDCK-MRP2/OATP8 cells grown on Transwell membrane inserts were incubated with 1 μM [^3H]BSP in the basolateral compartment for 30 min at 37° C. after a pre-incubation with 5 mM acivicin, an inhibitor of g-glutamyltransferase (Allen et al. 1980), in both compartments for 30 min at 37° C. The radioactivity in the apical compartment and in the cell lysate was analyzed by HPLC. Reversed-phase HPLC analyses on a C18 Hypersil column ([…] particles; Shandon, Runcorn, UK) were performed as described (Cui et al. 2001) using a linear gradient elution from 100% buffer A (45% methanol/55% water containing […] tetrabutylammonium hydroxide at pH 6.0) to 100% buffer B (90% methanol/10% water containing 2 mM tetrabutylammonium hydroxide at pH 6.0) at a flow rate of 1 ml/min. [^3H]BSP-SG was synthesized for the HPLC analyses by incubating 1 mM GSH, 0.4 mM [^3H]BSP (1 μCi), and 5 mM acivicin with 350 μl mouse liver cytosol in a final volume of 500 μl for 1 h at 37° C. After deproteinization with 3 volume of methanol 200 μl supernatant was analyzed by HPLC as described above.

[2] = system: human OATP8 and MRP2 (MDCK-MRP2/OATP8 cells)
Protocol: For transport assays MDCKII cells were grown on Transwell membrane inserts (24 mm diameter, 0.4 μm pore size, Corning Costar) at confluency for 3 days and induced with 10 mM sodium butyrate for 24 h. […] After the time periods indicated, the radioactivity in the opposite compartments was measured. The intracellular accumulation of the radioactivity was determined by lysing the cells with 2 ml 0.2% SDS in water and measuring the radioactivity in cell lysates.
To study the transcellular transport of Fluo-3, cells were incubated with 2 μM Fluo-3 in the basolateral compartments at 37° C. for 30 min.
To study the transcellular transport of rifampicin, cells were incubated with 50 μM rifampicin in the basolateral compartments at 37° C. for 30 min. To determine the concentration of rifampicin in the apical compartments its absorption at 475 nm was measured with a spectrophotometer (Ultrospec III, Amersham-Pharmacia, Freiburg, Germany). A calibration curve for the calculation of the concentrations of rifampicin was determined in the concentration range between 1 and 50 μM.

[3] = target: T1, human OATP8 (MDCK-OATP8 cells) (Homo sapiens, UniProt Q9NPD5); experiment: [3H]BSP accumulation and efflux in MDCK-OATP8 cells on Transwell membrane inserts; format: cell-based; parameters: expressed in transfected cells
T1 sequence (Q9NPD5 1-702): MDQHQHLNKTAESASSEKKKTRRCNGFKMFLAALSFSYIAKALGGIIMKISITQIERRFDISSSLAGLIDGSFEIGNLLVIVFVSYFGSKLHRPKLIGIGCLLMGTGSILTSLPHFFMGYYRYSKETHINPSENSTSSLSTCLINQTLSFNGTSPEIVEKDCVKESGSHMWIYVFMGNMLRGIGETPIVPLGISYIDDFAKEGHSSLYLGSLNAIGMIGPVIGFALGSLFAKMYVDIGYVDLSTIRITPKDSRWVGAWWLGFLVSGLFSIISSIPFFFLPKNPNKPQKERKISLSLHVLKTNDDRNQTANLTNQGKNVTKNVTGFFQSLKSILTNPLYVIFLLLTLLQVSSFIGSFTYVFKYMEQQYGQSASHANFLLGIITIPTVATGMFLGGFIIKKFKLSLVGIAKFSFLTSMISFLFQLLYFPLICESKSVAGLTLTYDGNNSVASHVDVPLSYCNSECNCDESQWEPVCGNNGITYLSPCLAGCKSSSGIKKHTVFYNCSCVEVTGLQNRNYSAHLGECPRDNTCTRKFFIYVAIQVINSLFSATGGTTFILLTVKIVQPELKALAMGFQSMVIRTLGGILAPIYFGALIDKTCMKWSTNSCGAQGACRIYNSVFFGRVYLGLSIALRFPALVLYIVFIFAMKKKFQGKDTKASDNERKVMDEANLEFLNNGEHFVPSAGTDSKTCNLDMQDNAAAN

Sequence of human MRP2 (Q92887 whole entry): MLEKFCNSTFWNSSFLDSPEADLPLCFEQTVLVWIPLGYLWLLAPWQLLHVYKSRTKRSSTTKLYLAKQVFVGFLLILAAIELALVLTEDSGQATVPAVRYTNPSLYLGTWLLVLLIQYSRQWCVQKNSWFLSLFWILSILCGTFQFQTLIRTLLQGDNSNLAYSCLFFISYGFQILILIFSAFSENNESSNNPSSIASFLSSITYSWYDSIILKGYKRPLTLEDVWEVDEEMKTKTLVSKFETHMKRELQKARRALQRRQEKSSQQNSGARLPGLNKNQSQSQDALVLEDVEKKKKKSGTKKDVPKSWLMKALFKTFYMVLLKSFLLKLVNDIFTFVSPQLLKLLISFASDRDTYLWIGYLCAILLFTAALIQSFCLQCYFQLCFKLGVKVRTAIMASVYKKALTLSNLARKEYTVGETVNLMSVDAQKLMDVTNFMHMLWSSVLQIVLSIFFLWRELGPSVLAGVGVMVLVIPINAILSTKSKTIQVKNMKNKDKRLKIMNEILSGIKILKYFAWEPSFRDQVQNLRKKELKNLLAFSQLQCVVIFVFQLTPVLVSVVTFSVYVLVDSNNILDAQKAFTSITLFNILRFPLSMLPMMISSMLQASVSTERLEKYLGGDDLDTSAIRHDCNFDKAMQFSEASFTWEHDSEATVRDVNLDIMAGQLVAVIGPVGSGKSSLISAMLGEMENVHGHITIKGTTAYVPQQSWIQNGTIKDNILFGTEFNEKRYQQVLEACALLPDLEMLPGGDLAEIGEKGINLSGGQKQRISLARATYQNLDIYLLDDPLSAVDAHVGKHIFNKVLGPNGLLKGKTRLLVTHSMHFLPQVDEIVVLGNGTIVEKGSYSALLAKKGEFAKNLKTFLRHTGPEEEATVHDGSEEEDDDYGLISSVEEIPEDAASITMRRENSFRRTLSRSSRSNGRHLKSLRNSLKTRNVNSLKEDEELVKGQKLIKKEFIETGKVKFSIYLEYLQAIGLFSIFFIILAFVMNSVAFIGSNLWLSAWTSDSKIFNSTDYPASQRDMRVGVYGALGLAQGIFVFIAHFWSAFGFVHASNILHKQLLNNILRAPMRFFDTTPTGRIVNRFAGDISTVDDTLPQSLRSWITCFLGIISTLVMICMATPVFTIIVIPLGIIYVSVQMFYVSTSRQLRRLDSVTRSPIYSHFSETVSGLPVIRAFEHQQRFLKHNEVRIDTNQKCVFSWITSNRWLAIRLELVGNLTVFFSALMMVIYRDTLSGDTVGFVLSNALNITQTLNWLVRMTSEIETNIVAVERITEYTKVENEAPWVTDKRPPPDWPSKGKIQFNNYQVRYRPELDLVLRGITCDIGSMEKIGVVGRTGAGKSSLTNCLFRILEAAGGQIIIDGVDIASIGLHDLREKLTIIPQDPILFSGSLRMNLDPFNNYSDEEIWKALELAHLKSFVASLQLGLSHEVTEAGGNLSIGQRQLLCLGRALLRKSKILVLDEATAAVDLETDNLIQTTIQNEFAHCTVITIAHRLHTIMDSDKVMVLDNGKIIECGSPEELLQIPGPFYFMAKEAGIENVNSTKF

In the case of O=C1OC(c2ccc(O)c(S(=O)(=O)O)c2)(c2ccc(O)c(S(=O)(=O)O)c2)c2c(Br)c(Br)c(Br)c(Br)c21 [BSP, sulfobromophthalein], the “transport of [3H]BSP into membrane vesicles from HEK-MRP2 cells” value (human MRP2; 1 μM, ATP vs 5'-AMP) is reported as “transported ATP-dependently”, the “accumulation of [3H]BSP in membrane vesicles” value (human MRP2; HEK-MRP2 vs control-transfected HEK-Co vesicles) is reported as “significantly higher” and the “rate of transcellular transport of BSP” value [1] is reported as “significantly higher”. For the same compound, the “radioactivity in the apical compartment and in the cells with the retention time of unconjugated [3H]BSP” value (MDCK-MRP2/OATP8 cells) was over 98%, the “intracellular [3H]BSP level remaining after 30 min efflux” value [2] was “significantly lower” and the “transcellular transport (basolateral to apical)” value [2] was “marked transcellular transport”. For the same compound, the “rate of transfer from the basolateral to the apical compartment, double-transfected versus single-transfected cells” value ([2]; human, pH 7.3) was “at least 6 times”, the “intracellular accumulation of [3H]BSP” value ([3]; 1 μM basolateral, MDCK-OATP8 or MDCK-MRP2/OATP8 vs MDCK-Co and MDCK-MRP2 cells) was “significantly higher” and the “efflux of [3H]BSP, route of release” value ([3]; MDCK-OATP8 cells loaded with 1 μM for 30 min, then 30 min efflux) was “mainly across the basolateral membrane”.
